Read-outs that look alike come from different tables or passages of the source.
Columns and labels:
VEGFR2 and FGFR1 = experiment: Selection of compounds that selectively inhibit both VEGFR2 and FGFR1 (average relative IC50); format: biochemical; settings: average of VEGFR2 and FGFR1 relative IC50
any gene target = settings: cited from earlier work
VEGFR2 [1] = target: T1, VEGFR2 (Homo sapiens, UniProt P35968); settings: relative IC50: reported IC50 toward VEGFR2 divided by next lowest reported IC50 to any gene target
Zmpste24−/− mice [2] = experiment: Mouse model of progeria: body fat (Echo MRI), lean muscle, body weight, intrascapular brown fat; format: in vivo; settings: for Body fat (Echo MRI) vs vehicle / Intrascapular brown fat mass (percent of body weight) vs vehicle: Brivanib alaninate 50, SU5402 25, Cediranib maleate 5, Regorafenib 10, infigratinib 5 mg/kg
Protocol: Zmpste24 mice, a progeria model mouse line, were dosed with either 50 mg/kg Brivanib alaninate for 56 days, 5 days on, 2 days off (QD5), or vehicle alone. The dose was administered via oral gavage as a suspension of 18% (w/v) PEG400 2% (w/v) Tween-80 in water . The vehicle alone was 18% (w/v) PEG400 2% (w/v) Tween-80 in water.
The body fat of the mice was measured by an Echo MRI throughout the treatment.
Samples of intrascapular brown adipose tissue from 15 week old mice treated with Brivanib Alaninate or vehicle for 56 days underwent Hematoxylin and Eosin (H&E) staining.
Zmpste24−/− mice, a progeria model mouse line, were dosed with either 25 mg/kg SU5402 for 56 days, 5 days on, 2 days off (QD5) or vehicle alone. The dose was administered via oral gavage as a suspension of 5% (w/v) DMSO 9% (w/v) PEG400 1% (w/v) Tween-80 in saline. The vehicle alone was 5% (w/v) DMSO 9% (w/v) PEG400 1% (w/v) Tween-80 in saline.
The body fat of the mice was measured by an Echo […]. Lean muscle and body weight were also measured.
The dose was administered via oral gavage as a suspension of 18% (w/v) PEG400 2% (w/v) Tween-80 in water . The vehicle alone was 18% (w/v) PEG400 2% (w/v) Tween-80 in water.
The body fat of the mice was measured by an Echo MRI. […] There was also no alteration of intrascapular brown adipose tissue mass (FIG. 5D).
The dose was administered via oral gavage as a suspension of 18% (w/v) PEG400 2% (w/v) Tween-80 in water. The vehicle alone was 18% (w/v) PEG400 2% (w/v) Tween-80 in water.
The body fat of the mice was measured by an Echo MM. […] There was also no alteration of intrascapular brown adipose tissue mass (FIG. 6D).
The body fat of the mice was measure by an Echo MRI. […] There was also no alteration of intrascapular brown adipose tissue mass (FIG. 7D). […]

FGFR1 = FGFR1 (Homo sapiens, UniProt P11362); settings: relative IC50: reported IC50 toward FGFR1 divided by next lowest reported IC50 to any gene target
EPHX2 = target: T2, EPHX2 (Homo sapiens, UniProt P34913); settings: cited from earlier work
T2 sequence (P34913 1-555): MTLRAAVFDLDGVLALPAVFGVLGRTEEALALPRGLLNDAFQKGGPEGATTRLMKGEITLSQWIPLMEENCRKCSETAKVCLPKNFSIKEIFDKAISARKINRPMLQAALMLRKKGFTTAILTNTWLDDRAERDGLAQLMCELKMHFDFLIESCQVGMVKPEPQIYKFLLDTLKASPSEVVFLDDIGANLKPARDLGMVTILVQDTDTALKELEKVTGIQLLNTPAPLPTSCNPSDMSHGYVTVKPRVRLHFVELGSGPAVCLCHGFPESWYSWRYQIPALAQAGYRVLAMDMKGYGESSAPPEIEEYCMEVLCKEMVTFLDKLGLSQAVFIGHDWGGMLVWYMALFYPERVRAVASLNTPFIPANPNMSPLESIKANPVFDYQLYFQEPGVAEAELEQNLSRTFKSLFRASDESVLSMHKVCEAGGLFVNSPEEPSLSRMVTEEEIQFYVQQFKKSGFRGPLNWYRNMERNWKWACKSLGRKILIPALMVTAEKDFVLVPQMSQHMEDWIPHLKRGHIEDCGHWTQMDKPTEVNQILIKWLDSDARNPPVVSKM

VEGFR2 [3] = target: T1, VEGFR2; settings: read-out: VEGFR2 IC50_μM; reported IC50 to VEGFR2; cited from earlier work
[4] = test system: C57BL6 mice fed a high fat, high cholesterol, high fructose diet; experiment: Mouse model of diet induced fatty liver disease; format: in vivo; settings: 28 days
Zmpste24−/− mice [5] = experiment: Mouse model of progeria: bone loss score of vertebrae and femur (H&E sections); format: in vivo; settings: 50 mg/kg oral QD5 56 days, 15 weeks of age
Protocol: Zmpste24−/− mice were dosed with either 50 mg/kg Brivanib Alaninate for 56 days, 5 days on, 2 days off (QD5), or vehicle alone. The dose was administered via oral gavage as a suspension of 18% (w/v) PEG400 2% Tween-80 (w/v) in water . The vehicle alone was 18% (w/v) PEG400 2% (w/v) Tween-80 in water.
The mice were assessed for bone loss in the vertebrae and femur at 15 weeks of age. Bone loss was scored by a pathologist using H&E stained sections of vertebrae or femur samples by the following criteria:
The mice that are treated with a selective VEGFR2 inhibitor and a selective FGFR1 inhibitor are also assessed for bone loss in the vertebrae and femur. Bone loss is scored by a pathologist using the criteria in Example 2.

[6] = lowest reported IC50 to any gene target, read-out: min IC50
[7] = oral gavage QD5 for 56 days, SU5402 25, Cediranib maleate 5, Regorafenib 10, infigratinib 5 mg/kg
[8] = 50 mg/kg i.p. once a day, relative to standard diet

T1 sequence (P35968 20-1356, species assumed): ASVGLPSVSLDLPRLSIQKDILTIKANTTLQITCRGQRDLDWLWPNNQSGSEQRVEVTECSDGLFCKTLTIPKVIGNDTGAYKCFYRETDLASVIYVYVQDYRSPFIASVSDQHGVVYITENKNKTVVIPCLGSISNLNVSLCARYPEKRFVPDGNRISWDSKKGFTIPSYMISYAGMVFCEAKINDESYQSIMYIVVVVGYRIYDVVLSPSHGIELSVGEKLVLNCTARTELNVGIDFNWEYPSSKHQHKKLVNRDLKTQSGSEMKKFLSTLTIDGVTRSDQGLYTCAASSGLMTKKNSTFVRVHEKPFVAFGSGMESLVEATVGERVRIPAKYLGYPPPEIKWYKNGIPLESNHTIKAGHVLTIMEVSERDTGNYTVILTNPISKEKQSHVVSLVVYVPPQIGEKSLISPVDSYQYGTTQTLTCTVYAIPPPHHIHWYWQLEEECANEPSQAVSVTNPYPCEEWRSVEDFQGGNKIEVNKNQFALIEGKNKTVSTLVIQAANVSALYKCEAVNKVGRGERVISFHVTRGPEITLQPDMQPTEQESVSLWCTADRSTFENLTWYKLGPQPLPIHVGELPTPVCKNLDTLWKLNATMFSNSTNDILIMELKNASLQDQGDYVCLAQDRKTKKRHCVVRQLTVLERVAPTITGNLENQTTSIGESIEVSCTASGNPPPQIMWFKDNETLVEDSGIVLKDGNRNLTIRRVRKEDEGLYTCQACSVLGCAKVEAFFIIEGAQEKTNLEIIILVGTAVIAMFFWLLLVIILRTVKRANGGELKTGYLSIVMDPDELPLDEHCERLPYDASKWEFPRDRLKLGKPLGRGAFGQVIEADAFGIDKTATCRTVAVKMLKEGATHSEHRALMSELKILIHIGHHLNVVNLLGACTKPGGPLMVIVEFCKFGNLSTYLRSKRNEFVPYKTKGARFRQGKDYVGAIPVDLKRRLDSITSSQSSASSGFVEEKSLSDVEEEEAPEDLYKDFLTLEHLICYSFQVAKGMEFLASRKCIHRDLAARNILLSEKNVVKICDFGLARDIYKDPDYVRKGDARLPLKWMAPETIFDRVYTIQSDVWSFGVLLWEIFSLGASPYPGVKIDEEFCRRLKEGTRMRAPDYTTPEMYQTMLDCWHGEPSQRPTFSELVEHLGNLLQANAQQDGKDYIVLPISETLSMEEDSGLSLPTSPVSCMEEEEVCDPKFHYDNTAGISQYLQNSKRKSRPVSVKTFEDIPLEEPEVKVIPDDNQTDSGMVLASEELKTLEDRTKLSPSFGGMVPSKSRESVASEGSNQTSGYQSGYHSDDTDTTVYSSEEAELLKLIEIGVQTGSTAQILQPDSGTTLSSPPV
FGFR1, sequence (P11362 22-822, species assumed): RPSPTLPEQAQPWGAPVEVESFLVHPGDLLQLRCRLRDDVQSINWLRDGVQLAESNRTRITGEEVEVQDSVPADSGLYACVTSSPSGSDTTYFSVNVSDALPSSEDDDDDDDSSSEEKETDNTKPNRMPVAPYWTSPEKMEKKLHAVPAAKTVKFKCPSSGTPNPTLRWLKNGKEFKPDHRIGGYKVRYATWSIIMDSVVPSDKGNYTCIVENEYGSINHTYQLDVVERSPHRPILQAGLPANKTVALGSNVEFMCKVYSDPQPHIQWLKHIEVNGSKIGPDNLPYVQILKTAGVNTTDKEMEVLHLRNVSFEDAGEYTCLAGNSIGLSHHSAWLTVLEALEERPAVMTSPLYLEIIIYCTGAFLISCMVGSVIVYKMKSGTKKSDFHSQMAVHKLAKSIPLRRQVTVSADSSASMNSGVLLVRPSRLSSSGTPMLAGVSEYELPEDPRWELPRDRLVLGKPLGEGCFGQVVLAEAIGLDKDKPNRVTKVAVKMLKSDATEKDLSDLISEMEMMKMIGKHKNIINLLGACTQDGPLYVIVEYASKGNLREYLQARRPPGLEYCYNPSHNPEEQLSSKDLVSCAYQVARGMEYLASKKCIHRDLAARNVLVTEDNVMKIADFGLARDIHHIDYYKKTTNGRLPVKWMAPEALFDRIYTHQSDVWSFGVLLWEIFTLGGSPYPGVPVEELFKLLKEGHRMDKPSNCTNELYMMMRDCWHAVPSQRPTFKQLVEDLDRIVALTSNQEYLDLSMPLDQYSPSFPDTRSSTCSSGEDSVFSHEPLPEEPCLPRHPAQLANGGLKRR

## CNC(=O)c1cc(Oc2ccc(NC(=O)Nc3ccc(Cl)c(C(F)(F)F)c3)c(F)c2)ccn1 [compound 11167602, Regorafenib]
VEGFR2 and FGFR1
  avg rIC50: 5.7
Any gene target; [6]
  IC50: 1 nM
VEGFR2 [1]
  VEGFR2, rIC50: 8.4
Zmpste24−/− mice [2]; oral gavage QD5 for 56 days
  Body fat (Echo MRI) vs vehicle: did not show an increase
  Intrascapular brown fat mass (percent of body weight) vs vehicle: no alteration
Zmpste24−/− mice [2]; [7]
  Body weight vs vehicle: did not show an increase
  Lean muscle vs vehicle: did not show an increase
FGFR1
  FGFR1, rIC50: 3.0
EPHX2
  IC50: < 3 nM

## Cc1cc2c(F)c(Oc3ncnn4cc(OC[C@@H](C)OC(=O)[C@@H](C)N)c(C)c34)ccc2[nH]1 [compound 11234052, Brivanib alaninate (Brivanib)]
VEGFR2 [3]
  IC50: 25 nM
VEGFR2 and FGFR1
  avg rIC50: 1.0
Any gene target; [6]
  IC50: 25 nM
Any gene target; next lowest IC50 value to any gene target, read-out: Min IC50_μM
  IC50: 28 nM
VEGFR2 [1]
  VEGFR2, rIC50: 0.9
Zmpste24−/− mice [2]; 15 week old mice, 50 mg/kg for 56 days
  Lipid content in intrascapular brown adipose tissue (H&E): increased lipid content
Zmpste24−/− mice [2]; oral gavage QD5 for 56 days
  Body fat (Echo MRI) vs vehicle: increase in body mass starting at 6 weeks of age
  Intrascapular brown fat mass (percent of body weight) vs vehicle: made up for more of the percent of the body weight
[4]; 25 mg/kg i.p. once a day
  Liver lipid content (H&E) vs vehicle: decreased liver lipid content
  Size of adipocytes in the epididymal fat pad vs vehicle: decreased the size of adipocytes
  Thickness of the abdominal subcutaneous adipose: increased in the thickness
[4]; [8]
  Increase in blood urea nitrogen vs fatty liver diet + vehicle: less of an increase
  Increase in body weight vs fatty liver diet + vehicle: less of an increase
  Increase in liver mass vs fatty liver diet + vehicle: less of an increase
  Increase in serum cholesterol vs fatty liver diet + vehicle: less of an increase
  Increase in serum triglycerides vs fatty liver diet + vehicle: less of an increase
Zmpste24−/− mice [5]
  Bone loss score, femur: most severe score in the group: 0.5 (0.5 = less than 1%)
  Bone loss score, vertebrae: most severe score in the group: 4 (4 = 51-75%)
  Bone loss scores vs vehicle: lower bone loss scores
  Share of mice with the most severe score, femur: about 30%
  Share of mice with the most severe score, vertebrae: about 15%
FGFR1
  FGFR1, rIC50: 1.1

From patent US20240156825A1, “USE OF SELECTIVE VEGFR2 AND FGFR1 INHIBITORS” (Fountain Therapeutics Inc., priority 2022, published 2024)
